Source: patent publication US20130171139A1, “NCAM-VASE AND NEURODEGENERATION” (priority 2010, published 2013)

Assays:
Type in all cases: cell-based
total NCAM = assay: Total NCAM staining of cultured cortical astrocytes; settings: PND4 rat cortical astrocytes; 2 days; 1 mM dbcAMP or 50 ng/ml FGF-2
Method: (§1) Expression of NCAM-VASE by astrocytes was also examined. Astrocytes (>90% GFAP-positive cells) were isolated from the cortices of PND4 rat and cultured for 2 days in the absence or presence of 1 mM dbcAMP or 50 ng/ml FGF-2 in DMEM/10% FBS. Treatment with dbcAMP or FGF is known to stimulate a reactive phenotype in astrocytes, such as is found in astrocytes in the glial scars that are characteristic of damaged CNS. The astrocytes were then fixed and costained for GFAP and NCAM-VASE (as shown in FIG. 4) or total NCAM (not shown).

NCAM-VASE = NCAM-VASE staining of cultured cortical astrocytes; settings: PND4 rat cortical astrocytes; 2 days; 1 mM dbcAMP or 50 ng/ml FGF-2
Method: as §1

[1] = tested on: PND4 rat cerebellar granule neurons; assay: Neurite/axon outgrowth of cerebellar granule neurons cultured on 3T3 monolayers (control, NCAM or NCAM-VASE); settings: FGF (0.1 ng/m) or forskolin added to culture medium
Method: It has previously been shown that soluble NCAM-Fc stimulates axon outgrowth over control monolayers as effectively as if it were expressed in the monolayer (Meiri et al, J. Neurosci, 1998, 18, 10429-10437). […]
[…] Cerebellar granule neurons were cultured on control, NCAM-expressing (NCAM) or NCAM-VASE-expressing (VASE) monolayers in the absence of presence of soluble NCAM-Fc or NCAM-VASE-Fc (VASE-Fc).

Row | Molecule | total NCAM staining (total NCAM) | NCAM-VASE staining (NCAM-VASE) | axon length ([1]; NCAM-VASE-expressing monolayers) | axon outgrowth ([1]; control monolayers)
1 | CCCC(=O)Nc1ncnc2c1ncn2[C@@H]1O[C@@H]2COP(=O)(O)O[C@H]2[C@H]1OC(=O)CCC [dBcAMP, dbcAMP, reference compound] | large upregulation | large upregulation | – | –
2 | FGF2: fibroblast growth factor, known to stimulate axon outgrowth from cerebellar granule neurons | large upregulation | large upregulation | do not extend longer axons | stimulate axon outgrowth
